Test results as given in BindingDB's records for doi:10.1074/jbc.M114.553248 (National Taiwan University, 2014).

Columns and labels:
[1] = biological target: Isoform A1-A of Heterogeneous nuclear ribonucleoprotein A1 (A1-A) (Homo sapiens, UniProt P09651); assay: Surface Plasmon Resonance (SPR) Assay; conditions: pH 4
Excerpt: (§1) Recombinant full-length hnRNPA1 (aa 1-320) and truncated versions of hnRNPA1, including the N-terminal RNA binding domain (aa 1-196), the middle region (aa 182-268), and the C-terminal region (aa 268-320), were individually covalently coupled to a dextran matrix (CM5 chip) using a Biacore T200 system (GE Healthcare), following the manufacturer's protocols. Immobilized proteins were activated with N-hydroxysuccinimide and 1-ethyl-3-(3-dimethylaminopropyl) carbodiimide to form a […] between carboxyl moieties on the dextran and […] on the protein. hnRNPA1 variants were dissolved in 10 mM acetate buffer (full-length, pH 4; N-terminal RNA binding domain and the C-terminal region, pH 4.5; middle region, pH 5) to a concentration of 20 μg/ml and flowed over the activated surface for 5 min with PBS. Unreacted groups were blocked with ethanolamine. PBS containing 0.05% (v/v) P20 (surfactant) and 5% DMSO was used for priming and conditioning the surface of the chips. Quercetin was serially diluted (from 200 to 3 μM) in PBS buffer and maintained in DMSO (5% (v/v)) (final concentrations from 10 to 0.15 μM). The baseline response was determined for 120 s (30 μl/min) before perfusing the immobilized proteins with the compounds to allow association to occur. Dissociation was then monitored over a period of an additional 120 s. […]

[2] = biological target: Isoform A1-A of Heterogeneous nuclear ribonucleoprotein A1 (A1-A) 68-320] (Homo sapiens, UniProt P09651); assay: Surface Plasmon Resonance (SPR) Assay; conditions: pH 4
Excerpt: as §1

Sequence of Isoform A1-A of Heterogeneous nuclear ribonucleoprotein A1 (A1-A) (P09651 as listed by the source): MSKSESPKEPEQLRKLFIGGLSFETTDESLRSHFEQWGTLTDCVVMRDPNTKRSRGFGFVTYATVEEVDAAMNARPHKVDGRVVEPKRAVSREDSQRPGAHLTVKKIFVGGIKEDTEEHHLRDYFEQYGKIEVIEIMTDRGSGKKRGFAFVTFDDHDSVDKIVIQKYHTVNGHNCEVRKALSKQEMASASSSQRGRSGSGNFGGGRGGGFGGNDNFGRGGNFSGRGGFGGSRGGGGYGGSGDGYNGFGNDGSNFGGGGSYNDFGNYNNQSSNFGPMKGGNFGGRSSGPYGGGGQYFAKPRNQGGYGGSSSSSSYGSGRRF
Sequence of Isoform A1-A of Heterogeneous nuclear ribonucleoprotein A1 (A1-A) 68-320] (P09651 320-372): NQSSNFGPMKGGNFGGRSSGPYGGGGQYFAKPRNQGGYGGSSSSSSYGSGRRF

## O=c1c(O)c(-c2ccc(O)c(O)c2)oc2cc(O)cc(O)c12 [2-(3,4-dihydroxyphenyl)-3,5,7-trihydroxy-chromone;hydrate]
[1]
  Kd: 8.9 µM
[2]
  Kd: 1.7 µM
